According to ChEMBL document CHEMBL1153912, “Antiproliferative effects of peracetylated naphthoxylosides” (Bioorg Med Chem Lett, 2009):

Key:
T-24 [1] = assay: Induction of glycosaminoglycan synthesis priming in human T24 cells assessed as ratio of fractions containing free glycosaminoglycan chains in drug to untreated control; type: functional; further: test concentration or dose not given here
HFL1 = assay: Induction of glycosaminoglycan synthesis priming in human HFL1 cells assessed as ratio of fractions containing free glycosaminoglycan chains in drug to untreated control; type: cell-based; further: test concentration or dose not given here
[2] = Antiproliferative activity against human HFL1 cells after 96 hrs by crystal violet assay; type: cell-based; details: read-out: ED50
T-24 [3] = assay: Antiproliferative activity against human T24 cells after 96 hrs by crystal violet assay; type: functional; details: T-24, 96 h, read-out: ED50 (the source's name)

| Structure (SMILES) | Ratio (T-24 [1]) | Ratio (HFL1) | GI50 at 96 h [2] | EC50 (T-24 [3]) |
| --- | --- | --- | --- | --- |
| CC(=O)O[C@@H]1[C@@H](OC(C)=O)[C@H](Oc2cccc3cccc(O[C@@H]4OC[C@@H](OC(C)=O)[C@H](OC(C)=O)[C@H]4OC(C)=O)c23)OC[C@H]1OC(C)=O | 1.7 | 2.4 | 20 µM | 190 µM |
| CC(=O)O[C@@H]1[C@@H](OC(C)=O)[C@H](Oc2ccc3ccccc3c2O[C@@H]2OC[C@@H](OC(C)=O)[C@H](OC(C)=O)[C@H]2OC(C)=O)OC[C@H]1OC(C)=O | 1.4 | 0.8 | 5 µM | 25 µM |
| CC(=O)O[C@@H]1[C@@H](OC(C)=O)[C@H](Oc2cc3ccccc3cc2O[C@@H]2OC[C@@H](OC(C)=O)[C@H](OC(C)=O)[C@H]2OC(C)=O)OC[C@H]1OC(C)=O | 4.2 | 2.8 | 30 µM | 220 µM |
| CC(=O)O[C@@H]1[C@@H](OC(C)=O)[C@H](Oc2cc(O[C@@H]3OC[C@@H](OC(C)=O)[C@H](OC(C)=O)[C@H]3OC(C)=O)c3ccccc3c2)OC[C@H]1OC(C)=O | 3.4 | 4.7 | 20 µM | 40 µM |
| CC(=O)O[C@@H]1[C@@H](OC(C)=O)[C@H](Oc2ccc3c(O[C@@H]4OC[C@@H](OC(C)=O)[C@H](OC(C)=O)[C@H]4OC(C)=O)cccc3c2)OC[C@H]1OC(C)=O | 8.8 | 12.7 | 160 µM | 100 µM |
| CC(=O)Oc1cc2ccccc2cc1O[C@@H]1OC[C@@H](OC(C)=O)[C@H](OC(C)=O)[C@H]1OC(C)=O | 4.6 | 2.2 | 75 µM | 260 µM |
| CC(=O)Oc1ccc2c(O[C@@H]3OC[C@@H](OC(C)=O)[C@H](OC(C)=O)[C@H]3OC(C)=O)cccc2c1 | 6.4 | 1.8 | 80 µM | 110 µM |
| CC(=O)Oc1ccc2cccc(O[C@@H]3OC[C@@H](OC(C)=O)[C@H](OC(C)=O)[C@H]3OC(C)=O)c2c1 | 8.2 | 6.2 | 80 µM | 170 µM |
| CC(=O)Oc1cccc2ccc(O[C@@H]3OC[C@@H](OC(C)=O)[C@H](OC(C)=O)[C@H]3OC(C)=O)cc12 | 4.8 | 2.1 | 65 µM | 75 µM |
| CC(=O)Oc1cccc2c(O[C@@H]3OC[C@@H](OC(C)=O)[C@H](OC(C)=O)[C@H]3OC(C)=O)cccc12 | 6.1 | 2.7 | 90 µM | 170 µM |
| CC(=O)Oc1ccc(O[C@@H]2OC[C@@H](OC(C)=O)[C@H](OC(C)=O)[C@H]2OC(C)=O)c2ccccc12 | 9 | 4.8 | 80 µM | 130 µM |
| CC(=O)Oc1ccc2ccc(O[C@@H]3OC[C@@H](OC(C)=O)[C@H](OC(C)=O)[C@H]3OC(C)=O)cc2c1 | 6.5 | 2.2 | 85 µM | 190 µM |
| CC(=O)Oc1c(O[C@@H]2OC[C@@H](OC(C)=O)[C@H](OC(C)=O)[C@H]2OC(C)=O)ccc2ccccc12 | 7.1 | 1.8 | 110 µM | 250 µM |
| CC(=O)Oc1cc(O[C@@H]2OC[C@@H](OC(C)=O)[C@H](OC(C)=O)[C@H]2OC(C)=O)c2ccccc2c1 | 4.5 | 2.2 | 20 µM | 25 µM |
| CC(=O)O[C@@H]1[C@@H](OC(C)=O)[C@H](Oc2cccc3c(O[C@@H]4OC[C@@H](OC(C)=O)[C@H](OC(C)=O)[C@H]4OC(C)=O)cccc23)OC[C@H]1OC(C)=O | 6.9 | 5.4 | 10 µM | 170 µM |
| CC(=O)O[C@@H]1[C@@H](OC(C)=O)[C@H](Oc2ccc3cc(O[C@@H]4OC[C@@H](OC(C)=O)[C@H](OC(C)=O)[C@H]4OC(C)=O)ccc3c2)OC[C@H]1OC(C)=O | 8.2 | 15.5 | 55 µM | 320 µM |
| CC(=O)O[C@@H]1[C@@H](OC(C)=O)[C@H](Oc2ccc(O[C@@H]3OC[C@@H](OC(C)=O)[C@H](OC(C)=O)[C@H]3OC(C)=O)c3ccccc23)OC[C@H]1OC(C)=O | 8 | 13.6 | 15 µM | 140 µM |
| CC(=O)O[C@@H]1[C@@H](OC(C)=O)[C@H](Oc2ccc3ccc(O[C@@H]4OC[C@@H](OC(C)=O)[C@H](OC(C)=O)[C@H]4OC(C)=O)cc3c2)OC[C@H]1OC(C)=O | 5.4 | 6.4 | 65 µM | 60 µM |
| CC(=O)O[C@@H]1[C@@H](OC(C)=O)[C@H](Oc2ccc3cccc(O[C@@H]4OC[C@@H](OC(C)=O)[C@H](OC(C)=O)[C@H]4OC(C)=O)c3c2)OC[C@H]1OC(C)=O | 0.5 | 11.1 | 135 µM | 110 µM |
| CC(=O)Oc1cccc2cc(O[C@@H]3OC[C@@H](OC(C)=O)[C@H](OC(C)=O)[C@H]3OC(C)=O)ccc12 | 6.9 | 1.3 | 100 µM | 65 µM |
| CC(=O)Oc1ccc2cc(O[C@@H]3OC[C@@H](OC(C)=O)[C@H](OC(C)=O)[C@H]3OC(C)=O)ccc2c1 | 5.4 | 2.5 | 80 µM | 45 µM |
| CC(=O)Oc1cccc2cccc(O[C@@H]3OC[C@@H](OC(C)=O)[C@H](OC(C)=O)[C@H]3OC(C)=O)c12 | 2.4 | 0.8 | 110 µM | 205 µM |
| CC(=O)Oc1ccc2ccccc2c1O[C@@H]1OC[C@@H](OC(C)=O)[C@H](OC(C)=O)[C@H]1OC(C)=O | 0.5 | 0.6 | 65 µM | 170 µM |
| CC(=O)Oc1cc(O[C@@H]2OC[C@@H](OC(C)=O)[C@H](OC(C)=O)[C@H]2OC(C)=O)cc2ccccc12 | 3.7 | 1 | 60 µM | 65 µM |
